Where “and” joins values, the source holds several entries; their conditions need not be identical. Equal entries are not always repeated.
System: 653999-131-R-J2-PDC complex spheroids, growth % test/control
Assay: Anticancer human tumor 653999-131-R-J2-PDC patient-derived lung adenocarcinoma cell line growth inhibition [AhR]
Conditions: for viability, T/C: stronger effect = lower value
Outline: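 Agents were dosed in half-log steps down from roughly clinical Cmax, or from 10 microM where Cmax was unknown, alone and with AhR antagonists. Read-out: percent test/control growth of tumor spheroids containing HUVEC and MSC stromal cells.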

[1] = curve of first compound, second compound 0.1 µM
[2] = curve of first compound, second compound 0.316 µM
[3] = curve of first compound, second compound 1 µM
[4] = curve of first compound, second compound 3.16 µM
[5] = curve of first compound, second compound 10 µM
[6] = second compound 0.1 µM, first compound 0.0316 µM
[7] = second compound 0.1 µM, first compound 0.1 µM
[8] = second compound 0.1 µM, first compound 0.316 µM
[9] = second compound 0.1 µM, first compound 1 µM
[10] = second compound 0.1 µM, first compound 3.16 µM
[11] = second compound 0.1 µM, first compound 10 µM
[12] = second compound 0.316 µM, first compound 0.0316 µM
[13] = second compound 0.316 µM, first compound 0.1 µM
[14] = second compound 0.316 µM, first compound 0.316 µM
[15] = second compound 0.316 µM, first compound 1 µM
[16] = second compound 0.316 µM, first compound 3.16 µM
[17] = second compound 0.316 µM, first compound 10 µM
[18] = second compound 1 µM, first compound 0.0316 µM
[19] = second compound 1 µM, first compound 0.1 µM
[20] = second compound 1 µM, first compound 0.316 µM
[21] = second compound 1 µM, first compound 1 µM
[22] = second compound 1 µM, first compound 3.16 µM
[23] = second compound 1 µM, first compound 10 µM
[24] = second compound 3.16 µM, first compound 0.0316 µM
[25] = second compound 3.16 µM, first compound 0.1 µM
[26] = second compound 3.16 µM, first compound 0.316 µM
[27] = second compound 3.16 µM, first compound 1 µM
[28] = second compound 3.16 µM, first compound 3.16 µM
[29] = second compound 3.16 µM, first compound 10 µM
[30] = second compound 10 µM, first compound 0.0316 µM
[31] = second compound 10 µM, first compound 0.1 µM
[32] = second compound 10 µM, first compound 0.316 µM
[33] = second compound 10 µM, first compound 1 µM
[34] = second compound 10 µM, first compound 3.16 µM
[35] = second compound 10 µM, first compound 10 µM
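Also: spheroids exposed to agents for seven days.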
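For viability, T/C in this document: 100% = DMSO vehicle control viability.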

SMILES	IC50 [1]	IC50 [2]	IC50 [3]	IC50 [4]	IC50 [5]	viability, T/C [6]	viability, T/C [7]	viability, T/C [8]	viability, T/C [9]	viability, T/C [10]	viability, T/C [11]	viability, T/C [12]	viability, T/C [13]	viability, T/C [14]	viability, T/C [18]	viability, T/C [19]	viability, T/C [24]	viability, T/C [25]	viability, T/C [30]	viability, T/C [31]	also measured
O=C(c1cc(Cc2n[nH]c(=O)c3ccccc23)ccc1F)N1CCN(C(=O)C2CC2)CC1 + Cc1ccccc1N=Nc1ccc(NC(=O)c2ccnn2C)c(C)c1	> 10 µM	> 10 µM	> 10 µM	> 10 µM	> 10 µM	106%	101%	91%	92.7%	88.4%	77.6%	96.1%	101%	95.5%	94%	104%	95.1%	94.9%	89.8%	88.3%	viability, T/C [15]: 89.3%; viability, T/C [16]: 89.6%; viability, T/C [17]: 84.3%; viability, T/C [20]: 94.8%; viability, T/C [21]: 84.2%; viability, T/C [22]: 91.8%; viability, T/C [23]: 82%; viability, T/C [26]: 91.5%; viability, T/C [27]: 87.1%; viability, T/C [28]: 85%; viability, T/C [29]: 76.2%; viability, T/C [32]: 87%; viability, T/C [33]: 82.3%; viability, T/C [34]: 84.4%; viability, T/C [35]: 72.8%
Nc1ccccc1NC(=O)c1ccc(CNC(=O)OCc2cccnc2)cc1	–	–	–	–	–	–	–	–	–	–	–	–	–	–	–	–	–	–	–	–	viability, T/C (compound 0.0316 µM): 98% and 89.6% and 98.3%; viability, T/C (compound 0.1 µM): 102% and 87.1% and 81%; viability, T/C (compound 0.316 µM): 83% and 80.2% and 77.3%; viability, T/C (compound 1 µM): 81% and 70.5% and 65.6%; viability, T/C (compound 3.16 µM): 57.5% and 63.4% and 69.3%; viability, T/C (compound 10 µM): 16% and 12.8% and 13.9%; IC50 (curve of compound): 3.84 µM and 3.93 µM and 4.02 µM
COc1cc(Nc2ncc3c(n2)-c2ccc(Cl)cc2C(c2c(F)cccc2OC)=NC3)ccc1C(=O)O + CC(CO)NC(=O)c1cc(-c2ccc(Cl)cc2)nn(-c2cnn(C)c2)c1=O	> 10 µM	> 10 µM	> 10 µM	> 10 µM	> 10 µM	95%	80.9%	77.6%	76.8%	66%	64%	92.6%	73.5%	74.8%	98.2%	76.1%	94.2%	83%	92.8%	81%	viability, T/C [15]: 62.4%; viability, T/C [16]: 70.8%; viability, T/C [17]: 65.2%; viability, T/C [20]: 83.9%; viability, T/C [21]: 70.8%; viability, T/C [22]: 77.8%; viability, T/C [23]: 68.5%; viability, T/C [26]: 79.1%; viability, T/C [27]: 74.7%; viability, T/C [28]: 77.5%; viability, T/C [29]: 77.4%; viability, T/C [32]: 78.4%; viability, T/C [33]: 74%; viability, T/C [34]: 67.9%; viability, T/C [35]: 80.4%
Cn1ncnc1C1c2n[nH]c(=O)c3cc(F)cc(c23)NC1c1ccc(F)cc1 (configuration not stated) + Cc1ccccc1N=Nc1ccc(NC(=O)c2ccnn2C)c(C)c1	> 0.1 µM	> 0.1 µM	> 0.1 µM	> 0.1 µM	> 0.1 µM	99.9%	98%	–	–	–	–	91.5%	92.8%	–	93.3%	95.6%	101%	103%	109%	87.3%	viability, T/C (second compound 0.1 µM, first compound 0.000316 µM): 106%; viability, T/C (second compound 0.1 µM, first compound 0.001 µM): 84.6%; viability, T/C (second compound 0.1 µM, first compound 0.00316 µM): 102%; viability, T/C (second compound 0.1 µM, first compound 0.01 µM): 92.3%; viability, T/C (second compound 0.316 µM, first compound 0.000316 µM): 94.3%; viability, T/C (second compound 0.316 µM, first compound 0.001 µM): 111%; viability, T/C (second compound 0.316 µM, first compound 0.00316 µM): 104%; viability, T/C (second compound 0.316 µM, first compound 0.01 µM): 95%; viability, T/C (second compound 1 µM, first compound 0.000316 µM): 103%; viability, T/C (second compound 1 µM, first compound 0.001 µM): 96.7%; viability, T/C (second compound 1 µM, first compound 0.00316 µM): 104%; viability, T/C (second compound 1 µM, first compound 0.01 µM): 108%; viability, T/C (second compound 3.16 µM, first compound 0.000316 µM): 93.4%; viability, T/C (second compound 3.16 µM, first compound 0.001 µM): 105%; viability, T/C (second compound 3.16 µM, first compound 0.00316 µM): 106%; viability, T/C (second compound 3.16 µM, first compound 0.01 µM): 94.9%; viability, T/C (second compound 10 µM, first compound 0.000316 µM): 86.2%; viability, T/C (second compound 10 µM, first compound 0.001 µM): 104%; viability, T/C (second compound 10 µM, first compound 0.00316 µM): 106%; viability, T/C (second compound 10 µM, first compound 0.01 µM): 95%
NS(=O)(=O)OCC1CC(n2ccc3c(NC4CCc5ccccc54)ncnc32)CC1O (configuration not stated) + CC(CO)NC(=O)c1cc(-c2ccc(Cl)cc2)nn(-c2cnn(C)c2)c1=O	> 10 µM	> 10 µM	> 10 µM	> 10 µM	> 10 µM	108%	99.8%	109%	98.9%	63.4%	51%	108%	98.7%	101%	101%	111%	101%	102%	97.9%	96.9%	viability, T/C [15]: 80.4%; viability, T/C [16]: 53.1%; viability, T/C [17]: 54.5%; viability, T/C [20]: 114%; viability, T/C [21]: 53.8%; viability, T/C [22]: 53.4%; viability, T/C [23]: 52.3%; viability, T/C [26]: 99.9%; viability, T/C [27]: 54.5%; viability, T/C [28]: 52%; viability, T/C [29]: 58.4%; viability, T/C [32]: 93.5%; viability, T/C [33]: 54.1%; viability, T/C [34]: 51%; viability, T/C [35]: 56.9%
